Experiment [1] addresses T1, Protease (Human immunodeficiency virus 1, UniProt Q9YQ12). The experiment can be described thus: Inhibition of wild type C-South African Human immunodeficiency virus 1 protease using chromogenic peptide H-1048 as substrate by UV spectrophotometric analysis. Further details: species or system C-SA.
In experiment [2] the target is T1, Protease. Description: Inhibition of wild type C-South African Human immunodeficiency virus 1 protease. Further details: species or system C-SA.
Experiment [3] addresses T1, Protease. The experiment can be described thus: Inhibition of Human immunodeficiency virus 1 protease.

pIC50, pKi: −log10 of the molar value. A value given as a limit tells only on which side of the number the result lay.

The results in this text go back to ChEMBL document CHEMBL3046831, “Novel PCU cage diol peptides as potential targets against wild-type CSA HIV-1 protease: synthesis, biological screening and molecular modelling studies” (Med Chem Res, 2013).

T1 sequence (Q9YQ12 whole entry): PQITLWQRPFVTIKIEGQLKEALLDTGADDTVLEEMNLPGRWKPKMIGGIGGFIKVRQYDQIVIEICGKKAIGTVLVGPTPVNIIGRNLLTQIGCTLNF

As for `O=C(CC1(O)C2C3CC4C5C3C1C5C(O)(CC(=O)N[C@@H](Cc1c[nH]cn1)C(=O)O)C42)N[C@@H](Cc1c[nH]cn1)C(=O)O` (some centres not stated), the pIC50 (as a rule, the IC50 on a negative log10 scale, so that one unit is a factor of ten) against Protease [1] is under 4.22. At Protease [1], `O=C(O)[C@@H]1CCCN1C(=O)CC1(O)C2C3CC4C5C3C1C5C(O)(CC(=O)N1CCC[C@H]1C(=O)O)C42` (some centres not stated) had a negative logarithm of the IC50 (pIC50) of under 4.22. The compound `NC(=O)[C@@H]1CCCN1C(=O)CC1(O)C2C3CC4C5C3C1C5C(O)(CC(=O)N1CCC[C@H]1C(N)=O)C42` (some centres not stated) gave a pIC50 against Protease [1] of under 4.22.

Regarding `O=C(CC1(O)C2C3CC4C5C3C1C5C(O)(CC(=O)N[C@@H](Cc1c[nH]c3ccccc13)C(=O)O)C42)N[C@@H](Cc1c[nH]c2ccccc12)C(=O)O` (some centres not stated), the pIC50 against Protease [1] is 5.30. Take `O=C(CC1(O)C2C3CC4C5C3C1C5C(O)(CC(=O)N[C@@H](Cc1ccc(O)cc1)C(=O)O)C42)N[C@@H](Cc1ccc(O)cc1)C(=O)O` (some centres not stated): the negative logarithm of the IC50 (pIC50) against Protease [1] was 5.00. Consider `O=C(O)CN(Cc1ccccc1)C(=O)CC1(O)C2C3CC4C5C3C1C5C(O)(CC(=O)N(CC(=O)O)Cc1ccccc1)C42` (configuration not stated), for which the negative-log IC50 (pIC50) at Protease [1] was under 4.22. Consider `O=C(CC1(O)C2C3CC4C5C3C1C5C(O)(CC(=O)N[C@H](C(=O)O)c1ccccc1)C42)N[C@H](C(=O)O)c1ccccc1` (some centres not stated), for which the negative logarithm of the IC50 (pIC50) on Protease [1] is 5.30. Compound `CC(C)[C@H](NC(=O)CC1(O)C2C3CC4C5C3C1C5C(O)(CC(=O)N[C@H](C(=O)O)C(C)C)C42)C(=O)O` (some centres not stated) gave a pIC50 at Protease [1] of 5.00. Regarding `O=C(CC1(O)C2C3CC4C5C3C1C5C(O)(CC(=O)N[C@@H](Cc1ccccc1)C(=O)O)C42)N[C@@H](Cc1ccccc1)C(=O)O` (some centres not stated), the pIC50 against Protease [1] is under 4.22. `CC(C)[C@H](NC12OC3(O)C4C5CC(C6C5C3C61)C42)C(=O)N[C@@H](C)C(=O)O` (some centres not stated): the pIC50 on Protease [2] was 6.22. In turn, `CC[C@H](C)[C@H](NC(=O)[C@H](C)NC(=O)[C@H](CCC(=O)O)NC12NC(=O)C3(O)C4C5CC(C6C5C3C61)C42)C(=O)N[C@@H](CO)C(=O)O` (some centres not stated) had a pIC50 at Protease [2] of 7.11.

Take `Nc1cccc(CN2C(=O)N(Cc3cccc(N)c3)[C@H](Cc3ccccc3)[C@H](O)[C@@H](O)[C@H]2Cc2ccccc2)c1` [MOZENAVIR]: at Protease [3], the negative logarithm of the Ki (pKi) (commonly −log10 of the Ki, conventionally taken in molar units) was 9.52.
